# Literature values in patent US20260248929A1, “MINOXIDIL-CROSSLINKED INJECTABLE HYDROGELS FOR LOCAL AND SUSTAINED INTRADERMAL DELIVER Y” (THE TRUSTEES OF THE UNIVERSITY OF PENNSYLVANIA, priority 2023, published 2026).
# Settings: topical application to skin
smiles,measurement,value
Nc1cc(N2CCCCC2)nc(N)[n+]1[O-] [minoxidil],minoxidil absorbed from a topical application,1%
